From patent US5977144A (priority 1997, dated 1999) come the findings set out here.

Entries after “also recorded” stand apart in the source; their conditions may differ. Where a name gives a salt, the structure may show the parent alone. Read-outs that look alike come from different tables or passages of the source.

In experiment [1] the target is alpha7 receptor (high affinity alpha-bungarotoxin binding, rat brain membranes) (Rattus norvegicus, UniProt Q05941). Description: biochemical.
The target in a further experiment is rat alpha4beta2 receptor (Rattus norvegicus, UniProt P09483+P12390). Description: Activation of alpha4beta2 receptors expressed in Xenopus oocytes. Format: cell-based. To be noted: for Emax: read-out: alpha4beta2 activation: response compared to maximal acetylcholine. As to the method:
FIG. 14A. Responses of α4β2 ACHR to 3-CA, 2-MeOCA or 4-MeOCA. Concentration-response relationships for the peak agonist activated currents of oocytes injected with RNA coding for rat α4β2 subunits. Responses are first expressed relative to the response to 10 μM ACh, applied 5 min before drug-application, then normalized to the maximum response obtainable with ACh so that a response of 1 represents full efficacy. The ratio between 10 μM ACh and maximum ACh response was determined in separate experiments.
(§1) Oocytes were prepared and recordings made as described previously (de Fiebre, et al., 1995). Frogs were anesthetized by submersion in 0.1% (3)-aminobenzoic acid ethyl ester and several lobes of the ovary surgically removed through a small incision in the abdomen wall. Oocytes were freed from the follicle cells by treatment with collagenase (in calcium-free Barth's solution: 88 mM NaCl, 1 mM KCl, 15 mM Hepes pH 7.6, 0.33 mM MgSO4, 0.1 mg/ml gentamicin sulfate) for 2 hr at room temperature and Stage 5 oocytes were isolated. Oocytes were rinsed and stored at 18° C. in Barth's saline (88 mM NaCl, 1 mM KCl, 15 mM Hepes pH 7.6, 0.3 mM Ca(NO3)2, 0.41 mM CaCl2, 0.82 mM MgSO4, 0.1 mg/ml gentamicin sulfate) before and after microinjection with RNA. Microinjection was conducted with a Drummond Scientific "Nanoject Variable" automatic injector. Oocytes were injected with a 50 nl solution of specified rat nicotinic subunit mRNA species (2-10 mg/ml; derived from the cDNA containing HIP 306 plasmid kindly provided by Dr. Jim Boulter, Salk Institute) and incubated 2-7 days at 18° C. before electrophysiological recording. electrophysiological recordings, oocytes were perfused in a Warner Instruments RC-8 recording chamber with a perfusion solution containing 115 mM NaCl, 2.5 mM KCl, 10 mM Hepes pH 7.2, 1.8 mM CaCl2 and 1 μM atropine to block muscarinic responses. Perfusion was continuous at a rate of 10 ml/min. Drags were diluted in perfusion solution and applied using a solenoid valve to switch from perfusion to drug solutions. Current responses to drug administration were studied under two electrode voltage clamp at a holding potential of -70 mV using a Dagan Corp. TEV-200 voltage clamp connected to a 386-SX IBM computer using a TL-1 DMA interface (Axon Instruments). Micropipettes were filled with 3 M KCl and had resistances of 0.5-2 MOhms. Drug responses are analyzed with PClamp software (Axon Instruments). Oocytes with resting potentials of less than -30 mV were rejected.

Experiment [2] concerns the target T1, rat alpha7 receptor (Rattus norvegicus, UniProt Q05941). Description: cell-based. As to the method: FIG. 13A. Effects of chronic injections of DMXB or nicotine on high affinity [^3 H]ACh or [^125 I]α-bungarotoxin (BTX) binding in rat neocortices. Adult male rats were injected with saline vehicle, 1 mg/kg DMXB or 0.2 mg/kg nicotine (NIC) (IP) daily for 2 weeks. At that time, neocortices were removed and assayed for high affinity [^3 H]ACh or [^125 I]α-bungarotoxin binding as described in the text. […] Responses of rat α7 ACHR to 3-CA, 2-MeOCA and 4-MeOCA. Concentration-response relationships for the peak agonist activated currents of oocytes injected with RNA coding for the rat α7 subunit. All responses were initially measured relative to the individual oocyte-response to 500 μM ACh, applied 5 min prior to drug-application. Responses were normalized relative to the maximum response obtainable with ACh so that a response of 1 represents full efficacy. The ratio of 500 μM ACh control response to ACh maximum was taken from Papke et al., 1997.
as §1

Experiment [3] deals with T1, rat alpha7 receptor. Description: cell-based. On the set-up: Oocytes Antagonist: unit not given here. As to the method: FIG. 13B. Effects of chronic injections of DMXB or nicotine on high affinity [^3 H]ACh or [^125 I]α-bungarotoxin (BTX) binding in rat neocortices. Adult male rats were injected with saline vehicle, 1 mg/kg DMXB or 0.2 mg/kg nicotine (NIC) (IP) daily for 2 weeks. At that time, neocortices were removed and assayed for high affinity [^3 H]ACh or [^125 I]α-bungarotoxin binding as described in the text. […] Responses of rat α7 AChR to 3-CA, 2-MeOCA and 4-MeOCA. […] All responses are expressed relative to the oocyte-response to 500 μM ACh applied 5 min prior to the experimental agonist application.
as §1
Antagonist properties subsequent to agonist activity were measured as a decrease in responsiveness to ACh applied 5 min after compound-application, normalized to ACh application instead of the anabaseine-derivative (FIG. 13A AND FIG. 13B).

Experiment [4] has as its system rat primary neocortical neurons. The format is cell-based.
In another experiment the test system is rat. Description: Focal ischemia infarct size in rats. The format is in vivo. To be noted: 0.5 mg/kg IP mecamylamine with DMXB. Here is the method: FIG. 3. […] Rats received a 30 minute ischemia attack through tying of their common carotid; the amount of cell death (proportional to Infarct Size) was determined 24 hours later. Some animals received the benzylidene-anabaseine compound DMXB (1 mg/kg IP, salt weight) 1 hour before ligation, or the nicotinic antagonist mecamylamine (0.5 mg/kg IP), or both mecamylamine and DMXB, or DMXB 5 minutes after the ligation.
Male Sprague Dawley albino male rats (250-300 g) were anesthetized with a subcutaneous injection of ketamine, xylazine, and acepromazine (3:3:1 mixture, 0.7 cc/kg). Atropine (0.4 mg/kg IP) was injected several min prior to dissection of the carotid artery from the vagus. The internal carotid artery (ICA) was dissected until its proximal bifurcation into the terminal ICA and pterygopalatine arteries were clearly defined. The pterygopalatine artery was clipped parallel to and flush with the terminal ICA. Another clip was applied to the common carotid artery (CCA). The distal aspect of the external carotid artery (ECA) was coagulated and a straight aneurysm clip was applied 4 mm distal to the proximal ICA bifurcation. A suture was passed through the arteriotomized ECA stump into the ICA until the tip was resting against the aneurysm clip. The suture was removed 30 min later, with body temperature maintained between 36.5-37.5° C. The ECA stump was coagulated with bipolar electrocautery. Clips were removed and the wound was irrigated with saline prior to suturing.
Rats were euthanised 24 hours post-infarction and their brains removed and sectioned coronally (2 mm). Sections were placed into a 2% solution of 2,3,5-triphyenyl-tetrazolium cholide (Sigma Chemical Co., St. Louis. Mo.) for 20 minutes at 37° C. The sections were removed to a petri dish and covered with 10% formaldehyde solution. The outline function of the NIH Image computer program (version 1.47) was used to estimate the infarcted and total brain areas for each section. Infarct size was calculated as percent of total brain area.

The next experiment deals with PC12 cells. Format: cell-based. The settings on record: 10 μM (NGF 100 ng/ml); 4 days after removal of serum and NGF; mean±SEM; * p<0.05. As to the method: PC12 cell-culture methods were modified from Greene and Tischler (1976). Cells were plated at 30-40% confluence and grown in Dulbecco's Modified Eagle Medium containing 10% heat-inactivated horse serum, 5% fetal bovine serum, 100 units/ml penicillin, 100 μg/ml streptomycin and 0.5 mM 1-glutamine. Cultures were maintained at 37° C., […] /6% CO2 and 90-92% humidity in culture plates pre-coated with poly-1lysine (10 g/L). Cultures were maintained for 7 days in serum-supplemented medium to which 100 ng/ml rat 2.5S NGF was added at day 1. On day 7, conditioned medium was replaced serum-free medium containing specified drugs. Four days later, cell density was estimated using the NIH Image program version 1.47 and number of neurite-expressing cells counted manually in blind fashion as described previously (Martin et al., 1994). A Nikon inverted microscope (100× magnification) was attached to a Mac II computer via a monochrome video camera (Cohu, Inc., San Diego, Calif.). Four random areas were counted per plate and there were 4 plates per treatment group, unless otherwise indicated. Neurites were defined as processes at least 2× the length of the perikaryon. To assess the reliability of the image analyses, a reticle was used for direct quantification of cells in the same view as the one analyzed in random samples.
PC12 cells were differentiated for 1 week with NGF. Drugs were administered for the 4 day interval after removal of serum and NGF. Neuites were counted and expressed as the mean±SEM of at least 3 plates/group.

Where [5] appears, read: Table 4, read-out: Receptor Binding α7.
Where [6] appears, read: read-out: alpha7 activation: response, normalized to 500 μM acetylcholine (maximum response).
Where [7] appears, read: read-out: alpha7 binding: % Inhibition of high affinity alphabungarotoxin binding (1 nM).

Chain of rat alpha4beta2 receptor (P09483 31-630): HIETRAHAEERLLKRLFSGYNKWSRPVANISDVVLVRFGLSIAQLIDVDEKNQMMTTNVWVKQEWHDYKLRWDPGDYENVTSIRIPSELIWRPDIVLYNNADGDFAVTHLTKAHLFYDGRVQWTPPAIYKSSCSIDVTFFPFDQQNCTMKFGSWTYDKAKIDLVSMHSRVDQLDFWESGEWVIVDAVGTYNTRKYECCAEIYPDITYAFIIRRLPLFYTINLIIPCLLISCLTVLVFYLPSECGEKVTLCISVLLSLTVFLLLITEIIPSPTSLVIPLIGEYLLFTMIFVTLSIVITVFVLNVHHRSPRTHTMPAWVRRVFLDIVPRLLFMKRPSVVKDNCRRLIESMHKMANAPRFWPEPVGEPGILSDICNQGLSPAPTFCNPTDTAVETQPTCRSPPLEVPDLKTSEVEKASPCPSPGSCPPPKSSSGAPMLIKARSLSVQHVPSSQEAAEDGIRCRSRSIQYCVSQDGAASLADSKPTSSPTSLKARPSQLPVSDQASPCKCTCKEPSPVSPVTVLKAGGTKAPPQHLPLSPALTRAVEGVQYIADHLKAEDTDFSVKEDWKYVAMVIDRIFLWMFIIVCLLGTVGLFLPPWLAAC
Chain of rat alpha4beta2 receptor (P12390 25-500): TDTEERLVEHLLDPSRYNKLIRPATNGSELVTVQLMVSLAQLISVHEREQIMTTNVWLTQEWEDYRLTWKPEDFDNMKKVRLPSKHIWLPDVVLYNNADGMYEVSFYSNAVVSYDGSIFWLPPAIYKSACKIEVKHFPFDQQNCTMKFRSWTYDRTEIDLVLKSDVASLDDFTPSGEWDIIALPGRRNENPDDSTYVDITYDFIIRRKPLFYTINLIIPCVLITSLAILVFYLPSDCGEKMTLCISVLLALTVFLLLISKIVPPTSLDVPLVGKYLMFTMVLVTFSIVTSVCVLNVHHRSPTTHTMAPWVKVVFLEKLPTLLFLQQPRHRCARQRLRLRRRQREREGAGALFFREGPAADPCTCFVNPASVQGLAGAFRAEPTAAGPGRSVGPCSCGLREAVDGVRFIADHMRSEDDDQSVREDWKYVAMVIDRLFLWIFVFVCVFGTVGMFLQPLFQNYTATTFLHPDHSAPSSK
Chain of alpha7 receptor (high affinity alpha-bungarotoxin binding, rat brain membranes) (Q05941 23-502): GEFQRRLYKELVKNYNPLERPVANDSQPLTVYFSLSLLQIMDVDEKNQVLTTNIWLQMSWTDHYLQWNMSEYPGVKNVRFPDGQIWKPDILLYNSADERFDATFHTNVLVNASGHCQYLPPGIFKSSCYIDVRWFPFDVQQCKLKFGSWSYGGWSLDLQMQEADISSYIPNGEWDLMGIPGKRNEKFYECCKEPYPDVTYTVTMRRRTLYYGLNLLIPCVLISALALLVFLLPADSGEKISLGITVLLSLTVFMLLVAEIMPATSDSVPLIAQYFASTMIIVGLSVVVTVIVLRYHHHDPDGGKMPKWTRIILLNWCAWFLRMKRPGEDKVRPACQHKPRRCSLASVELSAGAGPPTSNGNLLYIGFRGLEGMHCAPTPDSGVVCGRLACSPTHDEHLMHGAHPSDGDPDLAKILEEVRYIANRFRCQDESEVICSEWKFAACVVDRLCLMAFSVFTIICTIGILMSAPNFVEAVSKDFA
T1 sequence (Q05941 23-502): as above

For the compound `COc1ccc(C=C2CCCNC2c2cccnc2)c(OC)c1` (centres unmarked) [3(4-dimethoxy-benzylidene)anabasine], in experiment [1] (setting [5]), the inhibition at 1 µM amounted to 9%.

Regarding `COc1ccc(C=C2CCCN=C2c2cccnc2)cc1` [GTS-2, 3-(4-methoxybenzylidene)anabaseine], the results for the Emax at rat alpha4beta2 receptor and on rat alpha7 receptor [2] (setting [6]) were 5% and 7%, respectively.

In the case of `Oc1ccc(C=C2CCCN=C2c2cccnc2)cc1` [GTS-7, 3-(4-hydroxybenzylidene)anabaseine], the Emax on rat alpha4beta2 receptor was found to be 2%; at rat alpha7 receptor [2] (setting [6]), 31%. Besides, the inhibition at 1 µM in experiment [1] (setting [5]) was determined as 69.3%; in experiment [1] (concentration of 1 μM (Table 1), read-out: alpha7 binding: % Inhibition of high affinity alphabungarotoxin binding (1 nM)) it was 69%.

For the compound `Nc1ccc(C=C2CCCN=C2c2cccnc2)cc1` [GTS-13, 3-(4-aminobenzylidene)anabaseine], the Emax is 5% on rat alpha4beta2 receptor, 72% on rat alpha7 receptor [2] (read-out: Oocytes Agonist α7) and 72% at rat alpha7 receptor [2] (setting [6]). In addition, the inhibition at 1 µM in experiment [1] (read-out: Receptor Binding α7) and in experiment [1] (setting [7]) was 93% throughout. The “Oocytes Antagonist” value at rat alpha7 receptor [3] is given as “.69”.

For the compound `COc1ccc(C=C2CCCN=C2c2cccnc2)c(O)c1` [GTS-51, 3-(2-hydroxy-4-methoxybenzylidene) anabaseine], the Emax was determined as 1% on rat alpha4beta2 receptor, 29% on rat alpha7 receptor [2] (read-out: Oocytes Agonist α7) and 29% on rat alpha7 receptor [2] (setting [6]). For the same compound, the inhibition at 1 µM in experiment [1] (setting [7]) stood at 45%. In addition, the “Oocytes Antagonist” value at rat alpha7 receptor [3] was “.26”.

With `COc1cc(O)ccc1C=C1CCCN=C1c1cccnc1` [GTS-62, 3-(4-hydroxy-2-methoxybenzylidene)anabaseine], the Emax at rat alpha4beta2 receptor came out at 4%; on rat alpha7 receptor [2] (read-out: Oocytes Agonist α7), 43%; on rat alpha7 receptor [2] (setting [6]), 41%. In addition, the inhibition at 1 µM in experiment [1] (read-out: Receptor Binding α7) and in experiment [1] (setting [7]) was 84% in each case. Also, on rat alpha7 receptor [3], the “Oocytes Antagonist” value was “.35”.

As to `COc1ccc(C(C)=C2CCCN=C2c2cccnc2)c(OC)c1` [GTS-80, 3-(2,4-dimethoxy-α-methyl-benzylidene)], the inhibition at 1 µM in experiment [1] (setting [5]) came out at 85%.

Turning to `COc1cc(O)ccc1/C=C/C=C1\CCCN=C1c1cccnc1` [GTS-86, trans-3-(4-hydroxy-2-methoxycinnamylidene) anabaseine dihydrochloride], in experiment [1] (setting [5]), the inhibition at 1 µM came out at 90%.

`COc1ccc(/C=C/C=C2\CCCN=C2c2cccnc2)c(OC)c1` [GTS-87, trans-3-(2,4-dimethoxycinnamylidene) anabaseine dihydrochloride]: the inhibition at 1 µM in experiment [1] (setting [5]) is 76%.

Consider `C[C@]12N[C@H](Cc3ccccc31)c1ccccc12` [MK-801], for which the “protection against glutamate, concomitant (in words)” value in experiment [4] (10 μM, with 1 mM glutamate) is listed as “blocking effect”.

Regarding `CN(C)CCCOc1ccc(C=C2CCCN=C2c2cccnc2)cc1` [compound 15, 3(4-dimethylaminopropoxy-benzylidene)anabaseine], at rat alpha7 receptor [2] (Table 4, read-out: Oocytes Agonist α7), the Emax is 3%. In addition, the inhibition at 1 µM in experiment [1] (setting [5]) is 87%. Besides, on rat alpha7 receptor [3] (Table 4), the “Oocytes Antagonist” value was “.02”.

Consider `C[N+](C)(C)CCCCCC[N+](C)(C)C` [hexamethonium], for which the “antagonist effect on DMXB-induced neuroprotection (in words)” value (from here on “antagonist effect”) in experiment [4] (against glutamate cytotoxicity) is given as “sensitive”.

Take `CNC1(C)C2CCC(C2)C1(C)C` (centres unmarked) [mecamylamine, reference compound]: the “antagonist effect” value in experiment [4] (against glutamate cytotoxicity) is reported as “sensitive”. For the same compound, the “block of neuroprotective action of DMXB (in words)” value in the experiment on rat is recorded as “blocked this neuroprotective action of DMXB; also recorded: blocking action”.

As to `CCN1C[C@]2(COC(=O)c3ccccc3N3C(=O)C[C@H](C)C3=O)CC[C@H](OC)[C@@]34[C@@H]5C[C@H]6[C@H](OC)[C@@H]5[C@](O)(C[C@@H]6OC)[C@@](O)([C@@H](OC)[C@H]23)[C@@H]14` [methyllycaconitine], the “antagonist effect” value in experiment [4] (against glutamate cytotoxicity) is “sensitive”.

As to `CN1CCCC1c1cccnc1` (centres unmarked) [nicotine], in experiment [4], the “protection by nicotine (in words)” value is “protected against neuronal loss”.

Take “(7'-methyl-3-(2,4-dimethoxybenzylidene)) anabaseine [7'-methyl-DMXB]”: the “alpha4beta2 activation: response compared to maximal acetylcholine” value on rat alpha4beta2 receptor (xenopus oocytes) is recorded as 0.02. Besides, the “alpha7 activation: response, normalized to 500 μM acetylcholine (maximum response)” value at rat alpha7 receptor [2] was 0.32.

As to “NGF: nerve growth factor, 100 ng/ml (rat 2.5S NGF)”, in the experiment on PC12 cells, the “Neurite Counts” value was 342 ± 56.

With α-bungarotoxin [reference compound], the Kd (usually the concentration at which binding is half-saturated) in experiment [1] (read-out: Kd, Scatchard analysis (r=0.98; single site model)) worked out at 1.9 nM. The “antagonist effect” value in experiment [4] was “sensitive”.
